Patent US10414769B2, “5,8-dimethyl-9-phenyl-5,8-dihydro-6H-pyrazolo[3,4-h]quinazolin-2-yl)-(1H-pyrazol-3-yl)-amines as IGF-1R/IR inhibitors” (Boehringer Ingelheim International GmbH, priority 2015, dated 2019)

What was measured:
Format in all cases: biochemical
LCK = molecular target: T1, LCK (Homo sapiens, UniProt P06239); test: Z'-LYTE kinase selectivity assay LCK
T1 construct: purchased Life Technologies P 3043
Description: (§1) In order to compare the kinase selectivity of compounds (I) according to the invention with known prior art compounds the commercially provided SelectScreen® Kinase Profiling Service (Z′-LYTE®) was used (Life Technologies GmbH, Darmstadt, Germany) to investigate the ability of the compounds to inhibit a number of different, representatively selected human kinases. Further details regarding this service are available on the Life Technologies website at
(§2) The Z′-LYTE® biochemical assay employs a fluorescence-based, coupled-enzyme format and is based on the differential sensitivity of phosphorylated and non-phosphorylated peptides to proteolytic cleavage. The peptide substrate is labeled with two fluorophores—one at each end—that make up a FRET pair.
(§3) In the primary reaction, the kinase transfers the gamma-phosphate of ATP to a single tyrosine, serine or threonine residue in a synthetic FRET-peptide. In the secondary reaction, a site-specific protease recognizes and cleaves non-phosphorylated FRET-peptides. Phosphorylation of FRET-peptides suppresses cleavage by the Development Reagent. Cleavage disrupts FRET between the donor (i.e., coumarin) and acceptor (i.e., fluorescein) fluorophores on the FRET-peptide, whereas uncleaved, phosphorylated FRET-peptides maintain FRET. A ratiometric method, which calculates the ratio (the Emission Ratio) of donor emission to acceptor emission after excitation of the donor fluorophore at 400 nm, is used to quantitate reaction progress, as shown in the equation below.
(§4) The Test Compounds are screened at 1 μM.
The 2×LCK (# P 3043)/Tyr 02 (Z′-LYTE® Kinase Assay Kit—Tyrosine 2 Peptide, # PV 3191) mixture is prepared in 50 mM HEPES pH 7.5, 0.01% BRIJ-35, 10 mM MgCl2, 1 mM EGTA. The final 10 μL Kinase Reaction consists of 2.46-50 ng LCK and 2 μM Tyr 02 in 50 mM HEPES pH 7.5, 0.01% BRIJ-35, 10 mM MgCl2, 1 mM EGTA. After the 1 hour Kinase Reaction incubation, 5 μL of a 1:128 dilution of Development Reagent A is added.

EGFR (ErbB1) = molecular target: T2, EGFR (ErbB1) (Homo sapiens, UniProt P00533); test: Z'-LYTE kinase selectivity assay EGFR
T2 construct: purchased Life Technologies PV 3872
Description: as §1, §2, §3, §4
The 2×EGFR (ErbB1) (# PV 3872)/Tyr 04 (Z′-LYTE® Kinase Assay Kit—Tyrosine 4 Peptide, # PV 3193) mixture is prepared in 50 mM HEPES pH 7.5, 0.01% BRIJ-35, 10 mM MgCl2, 4 mM MnCl2, 1 mM EGTA, 2 mM DTT. The final 10 μL Kinase Reaction consists of 1.1-8 ng EGFR (ErbB1) and 2 μM Tyr 04 in 50 mM HEPES pH 7.5, 0.01% BRIJ-35, 10 mM MgCl2, 2 mM MnCl2, 1 mM EGTA, 1 mM DTT. After the 1 hour Kinase Reaction incubation, 5 μL of a 1:64 dilution of Development Reagent B is added.

CDK2/cyclin A = molecular target: T3, CDK2/cyclin A (Homo sapiens, UniProt P24941); test: Z'-LYTE kinase selectivity assay CDK2/cyclin A; details: read-out: CDK2/CYCLINA % inhibition
T3 construct: purchased Life Technologies PV 3267
Description: as §1, §2, §3, §4
The 2×CDK2/cyclin A (# PV 3267)/Ser/Thr 12 (Z′-LYTE® Kinase Assay Kit—Ser/Thr 12 Peptide, # PV 3673) mixture is prepared in 50 mM HEPES pH 7.5, 0.01% BRIJ-35, 10 mM MgCl2, 1 mM EGTA. The final 10 μL Kinase Reaction consists of 1.22-10.3 ng CDK2/cyclin A and 2 μM Ser/Thr 12 in 50 mM HEPES pH 7.5, 0.01% BRIJ-35, 10 mM MgCl2. 1 mM EGTA. After the 1 hour Kinase Reaction incubation, 5 μL of a 1:4096 dilution of Development Reagent A is added.

ACVR1B (ALK4) = molecular target: T4, ACVR1B (ALK4) (Homo sapiens, UniProt P36896); test: Z'-LYTE kinase selectivity assay ACVR1B
T4 construct: purchased Life Technologies PV4312
T4 sequence (P36896 24-505): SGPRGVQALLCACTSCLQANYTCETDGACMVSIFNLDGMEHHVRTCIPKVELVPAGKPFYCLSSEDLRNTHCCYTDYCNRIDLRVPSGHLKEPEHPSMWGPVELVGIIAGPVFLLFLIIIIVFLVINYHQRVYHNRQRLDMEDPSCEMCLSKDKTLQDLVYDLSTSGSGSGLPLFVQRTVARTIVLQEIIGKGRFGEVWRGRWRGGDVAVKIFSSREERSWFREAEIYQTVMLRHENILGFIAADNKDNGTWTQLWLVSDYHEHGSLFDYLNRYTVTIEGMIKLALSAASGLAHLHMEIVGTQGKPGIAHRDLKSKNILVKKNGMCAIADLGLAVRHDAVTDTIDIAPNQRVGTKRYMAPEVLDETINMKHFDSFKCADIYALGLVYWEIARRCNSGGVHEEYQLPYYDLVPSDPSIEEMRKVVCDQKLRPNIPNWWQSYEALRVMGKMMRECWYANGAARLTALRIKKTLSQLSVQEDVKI
Description: as §1, §2, §3, §4
The 2×ACVR1B (ALK4) (# PV4312)/Ser/Thr 16 (Z′-LYTE® Kinase Assay Kit—Ser/Thr 16 Peptide, # PV 3802) mixture is prepared in 50 mM HEPES pH 7.5, 0.01% BRIJ-35, 10 mM MnCl2, 1 mM EGTA, 2 mM DTT, 0.02% NaN3. The final 10 μL Kinase Reaction consists of 9.15-60 ng ACVR1B (ALK4) and 2 μM Ser/Thr 16 in 50 mM HEPES pH 7.5, 0.01% BRIJ-35, 5 mM MgCl2, 5 mM MnCl2, 1 mM EGTA, 1 mM DTT, 0.01% NaN3. After the 1 hour Kinase Reaction incubation, 5 μL of a 1:16 dilution of Development Reagent B is added.

CSNK2A1 (CK2 alpha 1) = molecular target: T5, CSNK2A1 (CK2 alpha 1) (Homo sapiens, UniProt P68400); test: Z'-LYTE kinase selectivity assay CSNK2A1
T5 construct: purchased Life Technologies PV 3248
Description: as §1, §2, §3, §4
The 2×CSNK2A1 (CK2 alpha 1) (# PV 3248)/Ser/Thr 11 (Z′-LYTE® Kinase Assay Kit—Ser/Thr 11 Peptide, # PV 3670) mixture is prepared in 50 mM HEPES pH 7.5, 0.01% BRIJ-35, 10 mM MgCl2, 1 mM EGTA. The final 10 μL Kinase Reaction consists of 0.68-25.7 ng CSNK2A1 (CK2 alpha 1) and 2 μM Ser/Thr 11 in 50 mM HEPES pH 7.5, 0.01% BRIJ-35, 10 mM MgCl2, 1 mM EGTA. After the 1 hour Kinase Reaction incubation, 5 μL of a 1:16 dilution of Development Reagent B is added.

T5 sequence (P68400 whole entry): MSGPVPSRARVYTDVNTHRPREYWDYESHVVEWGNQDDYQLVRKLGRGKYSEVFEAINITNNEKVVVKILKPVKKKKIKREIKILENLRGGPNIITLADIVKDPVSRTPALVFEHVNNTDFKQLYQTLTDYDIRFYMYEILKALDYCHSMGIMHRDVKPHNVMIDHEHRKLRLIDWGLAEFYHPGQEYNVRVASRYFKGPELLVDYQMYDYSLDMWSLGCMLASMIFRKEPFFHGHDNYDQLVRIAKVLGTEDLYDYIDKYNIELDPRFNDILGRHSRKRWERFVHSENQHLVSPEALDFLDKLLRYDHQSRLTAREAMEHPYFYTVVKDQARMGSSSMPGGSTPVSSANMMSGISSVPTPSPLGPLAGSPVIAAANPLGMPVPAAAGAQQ
T2 sequence (P00533 25-1210): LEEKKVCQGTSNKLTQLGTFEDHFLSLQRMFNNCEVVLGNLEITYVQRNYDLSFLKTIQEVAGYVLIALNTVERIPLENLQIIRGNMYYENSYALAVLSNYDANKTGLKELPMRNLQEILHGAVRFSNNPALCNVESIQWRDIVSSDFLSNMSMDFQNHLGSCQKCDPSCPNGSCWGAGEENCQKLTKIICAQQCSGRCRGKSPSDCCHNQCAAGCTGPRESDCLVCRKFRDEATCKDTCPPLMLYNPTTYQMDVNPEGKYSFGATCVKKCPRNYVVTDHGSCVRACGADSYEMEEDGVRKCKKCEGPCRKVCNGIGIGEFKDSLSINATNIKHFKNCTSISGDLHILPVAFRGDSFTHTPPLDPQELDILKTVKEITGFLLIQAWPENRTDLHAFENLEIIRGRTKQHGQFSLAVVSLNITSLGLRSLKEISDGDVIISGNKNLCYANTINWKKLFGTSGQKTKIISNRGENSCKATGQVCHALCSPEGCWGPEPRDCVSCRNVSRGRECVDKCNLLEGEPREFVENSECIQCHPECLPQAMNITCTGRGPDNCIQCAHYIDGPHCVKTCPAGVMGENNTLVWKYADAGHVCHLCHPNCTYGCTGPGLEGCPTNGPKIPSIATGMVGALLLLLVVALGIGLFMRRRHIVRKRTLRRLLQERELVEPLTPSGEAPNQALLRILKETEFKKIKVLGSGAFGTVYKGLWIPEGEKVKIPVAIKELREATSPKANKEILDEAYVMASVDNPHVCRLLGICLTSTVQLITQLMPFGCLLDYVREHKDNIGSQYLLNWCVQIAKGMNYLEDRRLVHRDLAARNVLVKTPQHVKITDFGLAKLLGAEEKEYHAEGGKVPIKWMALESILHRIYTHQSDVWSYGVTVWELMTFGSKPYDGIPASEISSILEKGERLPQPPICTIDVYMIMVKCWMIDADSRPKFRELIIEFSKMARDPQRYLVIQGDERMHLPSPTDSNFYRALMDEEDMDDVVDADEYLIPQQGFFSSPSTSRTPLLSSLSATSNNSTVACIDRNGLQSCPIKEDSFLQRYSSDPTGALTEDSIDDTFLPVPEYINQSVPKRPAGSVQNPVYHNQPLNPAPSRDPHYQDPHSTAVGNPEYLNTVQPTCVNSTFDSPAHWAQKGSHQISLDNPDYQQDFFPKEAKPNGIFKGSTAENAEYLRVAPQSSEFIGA
T1 sequence (P06239 whole entry): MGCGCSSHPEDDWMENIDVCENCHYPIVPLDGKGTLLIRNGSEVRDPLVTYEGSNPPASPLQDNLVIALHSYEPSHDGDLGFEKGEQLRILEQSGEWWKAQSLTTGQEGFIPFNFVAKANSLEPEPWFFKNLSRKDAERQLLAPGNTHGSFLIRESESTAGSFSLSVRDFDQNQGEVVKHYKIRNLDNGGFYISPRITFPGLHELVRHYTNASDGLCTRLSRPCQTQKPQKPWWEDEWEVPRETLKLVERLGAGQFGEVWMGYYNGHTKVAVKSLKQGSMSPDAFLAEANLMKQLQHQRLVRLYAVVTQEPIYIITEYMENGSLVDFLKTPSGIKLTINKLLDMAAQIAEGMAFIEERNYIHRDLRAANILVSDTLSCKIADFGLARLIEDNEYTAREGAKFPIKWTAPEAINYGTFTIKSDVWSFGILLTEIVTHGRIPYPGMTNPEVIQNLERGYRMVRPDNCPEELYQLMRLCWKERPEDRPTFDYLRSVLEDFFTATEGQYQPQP

inhibition at 1 µM (LCK) [%] | inhibition at 1 µM (EGFR (ErbB1)) [%] | inhibition at 1 µM (CDK2/cyclin A) [%] | inhibition at 1 µM (ACVR1B (ALK4)) [%] | inhibition at 1 µM (CSNK2A1 (CK2 alpha 1)) [%] | SMILES
84 | 77 | 74 | 0 | 8 | CC(O)CN1CCN(CCn2ccc(Nc3ncc4c(n3)-c3c(nn(C)c3-c3ccccc3)C[C@H]4C)n2)CC1 (some centres unmarked) [Compound I-7]
76 | 53 | 53 | -11 | 2 | COCCN1CCN(CCn2ccc(Nc3ncc4c(n3)-c3c(nn(C)c3-c3ccccc3)C[C@H]4C)n2)CC1 [Compound I-11]
82 | 72 | 66 | 0 | 3 | C[C@@H]1Cc2nn(C)c(-c3ccccc3)c2-c2nc(Nc3ccn(CCN4CCN(CC(C)(C)O)CC4)n3)ncc21 [Compound I-3]
85 | 65 | 72 | -10 | 4 | C[C@@H]1Cc2nn(C)c(-c3ccccc3)c2-c2nc(Nc3ccn(CCN4CCN(C)CC4)n3)ncc21 [Compound I-1]
59 | 56 | 49 | -4 | 7 | C[C@@H]1Cc2nn(C)c(-c3ccccc3)c2-c2nc(Nc3ccn(CCN4CCN(CC(=O)OC5CCOCC5)CC4)n3)ncc21 [Compound I-8]
80 | 65 | 63 | 7 | 1 | C[C@@H]1Cc2nn(C)c(-c3ccccc3)c2-c2nc(Nc3ccn(CCN4CCN(CC5CCCO5)CC4)n3)ncc21 (some centres unmarked) [Compound I-9]
78 | 68 | 56 | 0 | 10 | C[C@@H]1Cc2nn(C)c(-c3ccccc3)c2-c2nc(Nc3ccn(CCN4CCOCC4)n3)ncc21 [Compound I-2]
